# Molecular target: DYRK2 (human) (UniProt Q92630)
# Assay: radiometric filter-binding kinase assay, Kinase HotSpot
# Conditions: compound 0.5 µM; ATP 10 µM
row,Structure (SMILES),residual activity
1,O=C1Cc2c([nH]c3ccc([N+](=O)[O-])cc23)-c2ccccc2N1,72%
2,COc1cc2ncnc(Nc3ccc(F)c(Cl)c3)c2cc1OCCCN1CCOCC1,98.2%
3,Nc1nc(Nc2ccc(S(N)(=O)=O)cc2)nn1C(=O)c1c(F)cccc1F,112%
4,Clc1ccc(Nc2nnc(Cc3ccncc3)c3ccccc23)cc1,103%
5,O=C(NC(NC(=S)Nc1ccc(F)c([N+](=O)[O-])c1)C(Cl)(Cl)Cl)C(c1ccccc1)c1ccccc1 (stereo not drawn),102%

# Molecular target: MYLK2 (human) (UniProt Q9H1R3)
# Assay: as above
# Conditions: compound 0.5 µM; ATP 10 µM
row,Structure (SMILES),residual activity
1,O=C1Cc2c([nH]c3ccc([N+](=O)[O-])cc23)-c2ccccc2N1,94.8%
2,COc1cc2ncnc(Nc3ccc(F)c(Cl)c3)c2cc1OCCCN1CCOCC1,99.2%
3,Nc1nc(Nc2ccc(S(N)(=O)=O)cc2)nn1C(=O)c1c(F)cccc1F,96.1%
4,Clc1ccc(Nc2nnc(Cc3ccncc3)c3ccccc23)cc1,103%
5,O=C(NC(NC(=S)Nc1ccc(F)c([N+](=O)[O-])c1)C(Cl)(Cl)Cl)C(c1ccccc1)c1ccccc1 (stereo not drawn),104%

# Molecular target: AXL (human) (UniProt P30530)
# Assay: as above
# Conditions: compound 0.5 µM; ATP 10 µM
row,Structure (SMILES),residual activity
1,O=C1Cc2c([nH]c3ccc([N+](=O)[O-])cc23)-c2ccccc2N1,100%
2,COc1cc2ncnc(Nc3ccc(F)c(Cl)c3)c2cc1OCCCN1CCOCC1,88.8%
3,Nc1nc(Nc2ccc(S(N)(=O)=O)cc2)nn1C(=O)c1c(F)cccc1F,94.2%
4,Clc1ccc(Nc2nnc(Cc3ccncc3)c3ccccc23)cc1,98.3%
5,O=C(NC(NC(=S)Nc1ccc(F)c([N+](=O)[O-])c1)C(Cl)(Cl)Cl)C(c1ccccc1)c1ccccc1 (stereo not drawn),112%

# Molecular target: ROCK2 (human) (UniProt O75116)
# Assay: as above
# Conditions: compound 0.5 µM; ATP 10 µM
row,Structure (SMILES),residual activity
1,O=C1Cc2c([nH]c3ccc([N+](=O)[O-])cc23)-c2ccccc2N1,82%
2,COc1cc2ncnc(Nc3ccc(F)c(Cl)c3)c2cc1OCCCN1CCOCC1,90.8%
3,Nc1nc(Nc2ccc(S(N)(=O)=O)cc2)nn1C(=O)c1c(F)cccc1F,18.6%
4,Clc1ccc(Nc2nnc(Cc3ccncc3)c3ccccc23)cc1,95.4%
5,O=C(NC(NC(=S)Nc1ccc(F)c([N+](=O)[O-])c1)C(Cl)(Cl)Cl)C(c1ccccc1)c1ccccc1 (stereo not drawn),109%

# Molecular target: DAPK2 (human) (UniProt Q9UIK4)
# Assay: as above
# Conditions: compound 0.5 µM; ATP 10 µM
# Sequence of DAPK2 (human) (Q9UIK4 whole entry, looked up): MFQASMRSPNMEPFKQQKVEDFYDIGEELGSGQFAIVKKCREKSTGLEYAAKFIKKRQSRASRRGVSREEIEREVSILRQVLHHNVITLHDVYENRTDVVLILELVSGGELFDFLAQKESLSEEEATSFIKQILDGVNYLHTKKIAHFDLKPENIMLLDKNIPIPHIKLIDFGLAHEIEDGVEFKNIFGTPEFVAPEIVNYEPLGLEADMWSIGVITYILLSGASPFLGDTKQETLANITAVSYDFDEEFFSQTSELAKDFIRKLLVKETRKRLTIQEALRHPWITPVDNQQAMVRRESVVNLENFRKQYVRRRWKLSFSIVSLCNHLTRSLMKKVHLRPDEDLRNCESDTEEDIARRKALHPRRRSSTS
row,Structure (SMILES),residual activity
1,O=C1Cc2c([nH]c3ccc([N+](=O)[O-])cc23)-c2ccccc2N1,97.2%
2,COc1cc2ncnc(Nc3ccc(F)c(Cl)c3)c2cc1OCCCN1CCOCC1,93.2%
3,Nc1nc(Nc2ccc(S(N)(=O)=O)cc2)nn1C(=O)c1c(F)cccc1F,107%
4,Clc1ccc(Nc2nnc(Cc3ccncc3)c3ccccc23)cc1,91.7%
5,O=C(NC(NC(=S)Nc1ccc(F)c([N+](=O)[O-])c1)C(Cl)(Cl)Cl)C(c1ccccc1)c1ccccc1 (stereo not drawn),103%

# Molecular target: FGFR3 (human) (UniProt P22607)
# Assay: as above
# Conditions: compound 0.5 µM; ATP 10 µM
# Sequence of FGFR3 (human) (P22607 whole entry, looked up): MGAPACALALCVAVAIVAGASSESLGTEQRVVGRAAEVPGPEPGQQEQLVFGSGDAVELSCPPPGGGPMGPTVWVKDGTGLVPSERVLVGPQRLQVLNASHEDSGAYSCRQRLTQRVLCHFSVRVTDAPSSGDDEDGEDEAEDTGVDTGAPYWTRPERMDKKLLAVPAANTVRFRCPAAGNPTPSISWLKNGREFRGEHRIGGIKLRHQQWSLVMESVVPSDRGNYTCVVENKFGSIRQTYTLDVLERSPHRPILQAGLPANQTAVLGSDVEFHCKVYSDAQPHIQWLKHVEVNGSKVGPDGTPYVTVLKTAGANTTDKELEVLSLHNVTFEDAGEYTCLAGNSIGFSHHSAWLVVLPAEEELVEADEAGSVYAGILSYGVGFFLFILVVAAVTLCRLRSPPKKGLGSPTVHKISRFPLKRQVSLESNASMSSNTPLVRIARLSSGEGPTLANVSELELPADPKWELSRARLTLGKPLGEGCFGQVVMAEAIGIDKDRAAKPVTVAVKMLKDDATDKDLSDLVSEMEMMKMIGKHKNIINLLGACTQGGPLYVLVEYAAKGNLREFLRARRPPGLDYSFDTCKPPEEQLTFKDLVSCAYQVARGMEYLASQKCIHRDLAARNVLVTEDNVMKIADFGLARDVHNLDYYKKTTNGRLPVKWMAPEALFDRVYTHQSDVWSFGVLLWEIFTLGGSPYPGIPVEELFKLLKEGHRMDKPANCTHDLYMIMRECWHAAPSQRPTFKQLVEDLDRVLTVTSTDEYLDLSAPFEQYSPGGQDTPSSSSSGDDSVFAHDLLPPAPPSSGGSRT
row,Structure (SMILES),residual activity
1,O=C1Cc2c([nH]c3ccc([N+](=O)[O-])cc23)-c2ccccc2N1,90.5%
2,COc1cc2ncnc(Nc3ccc(F)c(Cl)c3)c2cc1OCCCN1CCOCC1,79.3%
3,Nc1nc(Nc2ccc(S(N)(=O)=O)cc2)nn1C(=O)c1c(F)cccc1F,46.4%
4,Clc1ccc(Nc2nnc(Cc3ccncc3)c3ccccc23)cc1,91.5%
5,O=C(NC(NC(=S)Nc1ccc(F)c([N+](=O)[O-])c1)C(Cl)(Cl)Cl)C(c1ccccc1)c1ccccc1 (stereo not drawn),96.8%

# Molecular target: FYN (human) (UniProt P06241)
# Assay: as above
# Conditions: compound 0.5 µM; ATP 10 µM
row,Structure (SMILES),residual activity
1,O=C1Cc2c([nH]c3ccc([N+](=O)[O-])cc23)-c2ccccc2N1,53.1%
2,COc1cc2ncnc(Nc3ccc(F)c(Cl)c3)c2cc1OCCCN1CCOCC1,92.2%
3,Nc1nc(Nc2ccc(S(N)(=O)=O)cc2)nn1C(=O)c1c(F)cccc1F,78.6%
4,Clc1ccc(Nc2nnc(Cc3ccncc3)c3ccccc23)cc1,104%
5,O=C(NC(NC(=S)Nc1ccc(F)c([N+](=O)[O-])c1)C(Cl)(Cl)Cl)C(c1ccccc1)c1ccccc1 (stereo not drawn),91.2%

# Molecular target: TYK2 JH1 catalytic (human) (UniProt P29597)
# Assay: as above
# Conditions: compound 0.5 µM; ATP 10 µM
# Sequence of TYK2 JH1 catalytic (human) (P29597 whole entry, looked up): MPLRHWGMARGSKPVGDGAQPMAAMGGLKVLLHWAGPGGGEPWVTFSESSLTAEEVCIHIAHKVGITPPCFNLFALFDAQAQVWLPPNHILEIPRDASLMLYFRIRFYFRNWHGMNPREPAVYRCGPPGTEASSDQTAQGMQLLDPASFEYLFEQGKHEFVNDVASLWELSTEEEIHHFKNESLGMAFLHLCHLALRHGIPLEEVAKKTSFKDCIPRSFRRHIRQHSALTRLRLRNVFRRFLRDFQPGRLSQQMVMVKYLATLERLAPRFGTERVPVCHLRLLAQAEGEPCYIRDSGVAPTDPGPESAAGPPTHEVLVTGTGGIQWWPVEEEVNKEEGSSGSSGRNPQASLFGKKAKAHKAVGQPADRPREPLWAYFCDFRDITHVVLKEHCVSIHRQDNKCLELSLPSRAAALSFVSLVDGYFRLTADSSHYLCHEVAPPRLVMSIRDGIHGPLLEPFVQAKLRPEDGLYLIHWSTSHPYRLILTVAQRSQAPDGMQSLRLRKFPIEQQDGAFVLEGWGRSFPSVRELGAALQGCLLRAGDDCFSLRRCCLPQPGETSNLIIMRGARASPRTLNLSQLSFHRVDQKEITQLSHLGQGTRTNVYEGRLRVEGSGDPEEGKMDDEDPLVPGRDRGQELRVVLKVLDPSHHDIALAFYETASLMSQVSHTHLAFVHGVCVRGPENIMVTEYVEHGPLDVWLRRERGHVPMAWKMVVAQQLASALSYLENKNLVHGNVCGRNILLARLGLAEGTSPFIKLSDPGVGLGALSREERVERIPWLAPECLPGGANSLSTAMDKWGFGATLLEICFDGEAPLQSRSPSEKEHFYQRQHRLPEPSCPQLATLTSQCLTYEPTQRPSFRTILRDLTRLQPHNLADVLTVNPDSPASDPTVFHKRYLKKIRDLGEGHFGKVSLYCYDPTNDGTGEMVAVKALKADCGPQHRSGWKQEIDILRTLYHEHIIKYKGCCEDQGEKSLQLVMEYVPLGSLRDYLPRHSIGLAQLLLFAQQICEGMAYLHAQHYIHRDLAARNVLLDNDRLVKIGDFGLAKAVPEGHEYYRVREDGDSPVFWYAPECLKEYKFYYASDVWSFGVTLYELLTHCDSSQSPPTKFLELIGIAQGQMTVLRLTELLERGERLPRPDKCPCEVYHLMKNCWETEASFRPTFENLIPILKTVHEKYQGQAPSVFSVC
row,Structure (SMILES),residual activity
1,O=C1Cc2c([nH]c3ccc([N+](=O)[O-])cc23)-c2ccccc2N1,56.5%
2,COc1cc2ncnc(Nc3ccc(F)c(Cl)c3)c2cc1OCCCN1CCOCC1,102%
3,Nc1nc(Nc2ccc(S(N)(=O)=O)cc2)nn1C(=O)c1c(F)cccc1F,0.878%
4,Clc1ccc(Nc2nnc(Cc3ccncc3)c3ccccc23)cc1,89.4%
5,O=C(NC(NC(=S)Nc1ccc(F)c([N+](=O)[O-])c1)C(Cl)(Cl)Cl)C(c1ccccc1)c1ccccc1 (stereo not drawn),94%

# Molecular target: CDC42BPA (human) (UniProt Q5VT25)
# Assay: as above
# Conditions: compound 0.5 µM; ATP 10 µM
row,Structure (SMILES),residual activity
1,O=C1Cc2c([nH]c3ccc([N+](=O)[O-])cc23)-c2ccccc2N1,96.2%
2,COc1cc2ncnc(Nc3ccc(F)c(Cl)c3)c2cc1OCCCN1CCOCC1,87.8%
3,Nc1nc(Nc2ccc(S(N)(=O)=O)cc2)nn1C(=O)c1c(F)cccc1F,97.5%
4,Clc1ccc(Nc2nnc(Cc3ccncc3)c3ccccc23)cc1,78.3%
5,O=C(NC(NC(=S)Nc1ccc(F)c([N+](=O)[O-])c1)C(Cl)(Cl)Cl)C(c1ccccc1)c1ccccc1 (stereo not drawn),111%

# Molecular target: NEK4 (human) (UniProt P51957)
# Assay: as above
# Conditions: compound 0.5 µM; ATP 10 µM
row,Structure (SMILES),residual activity
1,O=C1Cc2c([nH]c3ccc([N+](=O)[O-])cc23)-c2ccccc2N1,109%
2,COc1cc2ncnc(Nc3ccc(F)c(Cl)c3)c2cc1OCCCN1CCOCC1,103%
3,Nc1nc(Nc2ccc(S(N)(=O)=O)cc2)nn1C(=O)c1c(F)cccc1F,79.2%
4,Clc1ccc(Nc2nnc(Cc3ccncc3)c3ccccc23)cc1,97.7%
5,O=C(NC(NC(=S)Nc1ccc(F)c([N+](=O)[O-])c1)C(Cl)(Cl)Cl)C(c1ccccc1)c1ccccc1 (stereo not drawn),87.8%

# Molecular target: DSTYK (human) (UniProt Q6XUX3)
# Assay: as above
# Conditions: compound 0.5 µM; ATP 10 µM
row,Structure (SMILES),residual activity
1,O=C1Cc2c([nH]c3ccc([N+](=O)[O-])cc23)-c2ccccc2N1,90%
2,COc1cc2ncnc(Nc3ccc(F)c(Cl)c3)c2cc1OCCCN1CCOCC1,101%
3,Nc1nc(Nc2ccc(S(N)(=O)=O)cc2)nn1C(=O)c1c(F)cccc1F,86.2%
4,Clc1ccc(Nc2nnc(Cc3ccncc3)c3ccccc23)cc1,96.5%
5,O=C(NC(NC(=S)Nc1ccc(F)c([N+](=O)[O-])c1)C(Cl)(Cl)Cl)C(c1ccccc1)c1ccccc1 (stereo not drawn),100%

# Molecular target: CDK4 CCND3 (human) (UniProt P30281+P11802)
# Assay: as above
# Conditions: compound 0.5 µM; ATP 10 µM
# Sequence of CDK4 CCND3 (human) (P11802 whole entry, looked up): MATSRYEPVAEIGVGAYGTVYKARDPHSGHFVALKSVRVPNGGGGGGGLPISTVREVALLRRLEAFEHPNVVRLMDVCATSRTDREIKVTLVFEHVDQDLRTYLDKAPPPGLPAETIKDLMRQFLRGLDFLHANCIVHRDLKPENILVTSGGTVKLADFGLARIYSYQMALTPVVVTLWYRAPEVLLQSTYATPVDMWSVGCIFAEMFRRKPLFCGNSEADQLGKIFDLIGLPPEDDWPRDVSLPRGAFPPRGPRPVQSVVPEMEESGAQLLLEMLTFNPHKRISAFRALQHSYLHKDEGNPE
# Sequence of CDK4 CCND3 (human) (P30281 whole entry, looked up): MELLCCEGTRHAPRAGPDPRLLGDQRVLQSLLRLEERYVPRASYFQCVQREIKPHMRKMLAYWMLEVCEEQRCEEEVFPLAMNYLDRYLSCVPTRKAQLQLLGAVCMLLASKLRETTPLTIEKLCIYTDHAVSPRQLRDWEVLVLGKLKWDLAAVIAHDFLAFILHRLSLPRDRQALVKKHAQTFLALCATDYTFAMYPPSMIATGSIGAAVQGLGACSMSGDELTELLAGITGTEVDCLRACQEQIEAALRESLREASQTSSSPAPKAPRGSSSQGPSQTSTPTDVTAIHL
row,Structure (SMILES),residual activity
1,COc1cc2ncnc(Nc3ccc(F)c(Cl)c3)c2cc1OCCCN1CCOCC1,101%
2,Nc1nc(Nc2ccc(S(N)(=O)=O)cc2)nn1C(=O)c1c(F)cccc1F,34.7%
3,Clc1ccc(Nc2nnc(Cc3ccncc3)c3ccccc23)cc1,102%
4,O=C(NC(NC(=S)Nc1ccc(F)c([N+](=O)[O-])c1)C(Cl)(Cl)Cl)C(c1ccccc1)c1ccccc1 (stereo not drawn),93.7%

# Molecular target: RPS6KA2 KD1 KD2 (human) (UniProt Q15349)
# Assay: as above
# Conditions: compound 0.5 µM; ATP 10 µM
# Sequence of RPS6KA2 KD1 KD2 (human) (Q15349 whole entry, looked up): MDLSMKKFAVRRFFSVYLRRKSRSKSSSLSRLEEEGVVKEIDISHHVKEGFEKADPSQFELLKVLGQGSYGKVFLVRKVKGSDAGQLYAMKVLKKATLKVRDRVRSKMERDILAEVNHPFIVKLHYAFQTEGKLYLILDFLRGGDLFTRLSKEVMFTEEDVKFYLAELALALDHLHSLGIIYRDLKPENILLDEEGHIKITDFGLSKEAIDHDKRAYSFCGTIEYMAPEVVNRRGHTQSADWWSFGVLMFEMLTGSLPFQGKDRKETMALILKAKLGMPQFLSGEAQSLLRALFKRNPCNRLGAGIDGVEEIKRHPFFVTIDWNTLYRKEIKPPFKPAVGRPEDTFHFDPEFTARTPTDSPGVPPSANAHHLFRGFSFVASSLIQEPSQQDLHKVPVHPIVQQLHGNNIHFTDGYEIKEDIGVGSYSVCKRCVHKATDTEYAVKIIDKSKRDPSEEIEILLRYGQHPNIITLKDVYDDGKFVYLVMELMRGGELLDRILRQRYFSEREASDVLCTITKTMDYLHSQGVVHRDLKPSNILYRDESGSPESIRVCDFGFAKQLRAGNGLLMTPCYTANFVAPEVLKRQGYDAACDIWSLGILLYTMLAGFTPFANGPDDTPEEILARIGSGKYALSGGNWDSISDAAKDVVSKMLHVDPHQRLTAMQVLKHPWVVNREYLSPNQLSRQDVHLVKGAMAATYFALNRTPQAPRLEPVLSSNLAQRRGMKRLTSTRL
row,Structure (SMILES),residual activity
1,O=C1Cc2c([nH]c3ccc([N+](=O)[O-])cc23)-c2ccccc2N1,62%
2,COc1cc2ncnc(Nc3ccc(F)c(Cl)c3)c2cc1OCCCN1CCOCC1,82.3%
3,Nc1nc(Nc2ccc(S(N)(=O)=O)cc2)nn1C(=O)c1c(F)cccc1F,42.2%
4,Clc1ccc(Nc2nnc(Cc3ccncc3)c3ccccc23)cc1,97.5%
5,O=C(NC(NC(=S)Nc1ccc(F)c([N+](=O)[O-])c1)C(Cl)(Cl)Cl)C(c1ccccc1)c1ccccc1 (stereo not drawn),101%

# Molecular target: NEK3 (human) (UniProt P51956)
# Assay: as above
# Conditions: compound 0.5 µM; ATP 10 µM
# Sequence of NEK3 (human) (P51956 whole entry, looked up): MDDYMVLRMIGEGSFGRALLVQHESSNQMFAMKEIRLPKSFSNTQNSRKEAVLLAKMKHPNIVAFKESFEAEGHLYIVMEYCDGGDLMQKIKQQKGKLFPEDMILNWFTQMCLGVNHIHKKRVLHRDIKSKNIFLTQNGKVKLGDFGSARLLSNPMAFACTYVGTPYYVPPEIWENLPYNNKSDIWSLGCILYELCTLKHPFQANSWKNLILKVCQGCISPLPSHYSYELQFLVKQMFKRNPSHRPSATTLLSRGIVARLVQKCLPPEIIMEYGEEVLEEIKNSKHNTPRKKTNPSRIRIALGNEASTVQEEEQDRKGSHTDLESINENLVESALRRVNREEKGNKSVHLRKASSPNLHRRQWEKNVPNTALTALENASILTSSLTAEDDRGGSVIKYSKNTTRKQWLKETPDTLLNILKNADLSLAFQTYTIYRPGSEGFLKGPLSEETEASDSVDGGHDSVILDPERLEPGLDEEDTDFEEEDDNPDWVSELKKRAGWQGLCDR
row,Structure (SMILES),residual activity
1,O=C1Cc2c([nH]c3ccc([N+](=O)[O-])cc23)-c2ccccc2N1,108%
2,COc1cc2ncnc(Nc3ccc(F)c(Cl)c3)c2cc1OCCCN1CCOCC1,94.4%
3,Nc1nc(Nc2ccc(S(N)(=O)=O)cc2)nn1C(=O)c1c(F)cccc1F,92.6%
4,Clc1ccc(Nc2nnc(Cc3ccncc3)c3ccccc23)cc1,94.1%
5,O=C(NC(NC(=S)Nc1ccc(F)c([N+](=O)[O-])c1)C(Cl)(Cl)Cl)C(c1ccccc1)c1ccccc1 (stereo not drawn),96.2%

# Molecular target: CSNK1G2 (human) (UniProt P78368)
# Assay: as above
# Conditions: compound 0.5 µM; ATP 10 µM
row,Structure (SMILES),residual activity
1,O=C1Cc2c([nH]c3ccc([N+](=O)[O-])cc23)-c2ccccc2N1,91.7%
2,COc1cc2ncnc(Nc3ccc(F)c(Cl)c3)c2cc1OCCCN1CCOCC1,98.1%
3,Clc1ccc(Nc2nnc(Cc3ccncc3)c3ccccc23)cc1,98.2%
4,O=C(NC(NC(=S)Nc1ccc(F)c([N+](=O)[O-])c1)C(Cl)(Cl)Cl)C(c1ccccc1)c1ccccc1 (stereo not drawn),98.3%

# Molecular target: RPS6KB1 (human) (UniProt P23443)
# Assay: as above
# Conditions: compound 0.5 µM; ATP 10 µM
row,Structure (SMILES),residual activity
1,O=C1Cc2c([nH]c3ccc([N+](=O)[O-])cc23)-c2ccccc2N1,103%
2,COc1cc2ncnc(Nc3ccc(F)c(Cl)c3)c2cc1OCCCN1CCOCC1,93.9%
3,Nc1nc(Nc2ccc(S(N)(=O)=O)cc2)nn1C(=O)c1c(F)cccc1F,92.1%
4,Clc1ccc(Nc2nnc(Cc3ccncc3)c3ccccc23)cc1,102%
5,O=C(NC(NC(=S)Nc1ccc(F)c([N+](=O)[O-])c1)C(Cl)(Cl)Cl)C(c1ccccc1)c1ccccc1 (stereo not drawn),91.9%

# Molecular target: CSNK2A1 (human) (UniProt P68400)
# Assay: as above
# Conditions: compound 0.5 µM; ATP 10 µM
# Sequence of CSNK2A1 (human) (P68400 whole entry, looked up): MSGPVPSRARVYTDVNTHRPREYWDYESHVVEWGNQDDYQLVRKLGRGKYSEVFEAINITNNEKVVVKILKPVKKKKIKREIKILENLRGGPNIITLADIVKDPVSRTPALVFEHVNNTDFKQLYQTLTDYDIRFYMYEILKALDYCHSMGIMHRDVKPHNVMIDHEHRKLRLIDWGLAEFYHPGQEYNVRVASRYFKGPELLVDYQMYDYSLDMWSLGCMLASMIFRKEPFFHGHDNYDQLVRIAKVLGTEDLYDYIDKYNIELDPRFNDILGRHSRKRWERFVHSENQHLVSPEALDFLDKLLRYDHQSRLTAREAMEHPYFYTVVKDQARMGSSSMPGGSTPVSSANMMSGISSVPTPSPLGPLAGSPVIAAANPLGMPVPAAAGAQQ
row,Structure (SMILES),residual activity
1,O=C1Cc2c([nH]c3ccc([N+](=O)[O-])cc23)-c2ccccc2N1,86.8%
2,COc1cc2ncnc(Nc3ccc(F)c(Cl)c3)c2cc1OCCCN1CCOCC1,114%
3,Nc1nc(Nc2ccc(S(N)(=O)=O)cc2)nn1C(=O)c1c(F)cccc1F,104%
4,Clc1ccc(Nc2nnc(Cc3ccncc3)c3ccccc23)cc1,114%
5,O=C(NC(NC(=S)Nc1ccc(F)c([N+](=O)[O-])c1)C(Cl)(Cl)Cl)C(c1ccccc1)c1ccccc1 (stereo not drawn),95.4%

# Molecular target: MAP4K4 (human) (UniProt O95819)
# Assay: as above
# Conditions: compound 0.5 µM; ATP 10 µM
row,Structure (SMILES),residual activity
1,O=C1Cc2c([nH]c3ccc([N+](=O)[O-])cc23)-c2ccccc2N1,4.47%
2,COc1cc2ncnc(Nc3ccc(F)c(Cl)c3)c2cc1OCCCN1CCOCC1,97.8%
3,Nc1nc(Nc2ccc(S(N)(=O)=O)cc2)nn1C(=O)c1c(F)cccc1F,83.8%
4,Clc1ccc(Nc2nnc(Cc3ccncc3)c3ccccc23)cc1,107%
5,O=C(NC(NC(=S)Nc1ccc(F)c([N+](=O)[O-])c1)C(Cl)(Cl)Cl)C(c1ccccc1)c1ccccc1 (stereo not drawn),92.7%

# Molecular target: CSNK1D (human) (UniProt P48730)
# Assay: as above
# Conditions: compound 0.5 µM; ATP 10 µM
# Sequence of CSNK1D (human) (P48730 whole entry, looked up): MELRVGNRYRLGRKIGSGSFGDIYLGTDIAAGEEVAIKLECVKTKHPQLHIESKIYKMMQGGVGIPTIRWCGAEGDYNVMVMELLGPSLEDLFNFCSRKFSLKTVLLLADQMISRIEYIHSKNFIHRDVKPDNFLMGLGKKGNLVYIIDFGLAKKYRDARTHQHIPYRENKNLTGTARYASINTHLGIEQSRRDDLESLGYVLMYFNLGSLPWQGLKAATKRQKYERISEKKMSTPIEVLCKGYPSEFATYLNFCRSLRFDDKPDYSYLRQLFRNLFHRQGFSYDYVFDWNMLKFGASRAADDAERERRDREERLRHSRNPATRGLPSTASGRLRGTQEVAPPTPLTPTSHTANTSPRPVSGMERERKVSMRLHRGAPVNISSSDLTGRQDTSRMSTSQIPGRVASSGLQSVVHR
row,Structure (SMILES),residual activity
1,COc1cc2ncnc(Nc3ccc(F)c(Cl)c3)c2cc1OCCCN1CCOCC1,90.4%
2,Nc1nc(Nc2ccc(S(N)(=O)=O)cc2)nn1C(=O)c1c(F)cccc1F,94.5%
3,Clc1ccc(Nc2nnc(Cc3ccncc3)c3ccccc23)cc1,92.2%
4,O=C(NC(NC(=S)Nc1ccc(F)c([N+](=O)[O-])c1)C(Cl)(Cl)Cl)C(c1ccccc1)c1ccccc1 (stereo not drawn),105%

# Molecular target: TTK (human) (UniProt P33981)
# Assay: as above
# Conditions: compound 0.5 µM; ATP 10 µM
row,Structure (SMILES),residual activity
1,O=C1Cc2c([nH]c3ccc([N+](=O)[O-])cc23)-c2ccccc2N1,87.4%
2,COc1cc2ncnc(Nc3ccc(F)c(Cl)c3)c2cc1OCCCN1CCOCC1,96.3%
3,Nc1nc(Nc2ccc(S(N)(=O)=O)cc2)nn1C(=O)c1c(F)cccc1F,77.5%
4,Clc1ccc(Nc2nnc(Cc3ccncc3)c3ccccc23)cc1,108%
5,O=C(NC(NC(=S)Nc1ccc(F)c([N+](=O)[O-])c1)C(Cl)(Cl)Cl)C(c1ccccc1)c1ccccc1 (stereo not drawn),96.9%

# Molecular target: SRPK1 (human) (UniProt Q96SB4)
# Assay: as above
# Conditions: compound 0.5 µM; ATP 10 µM
row,Structure (SMILES),residual activity
1,O=C1Cc2c([nH]c3ccc([N+](=O)[O-])cc23)-c2ccccc2N1,100%

# Reference: the kinase profiling compilation of Christmann-Franck et al. (2016)
